The source of these data is patent US10821115B2, “Compounds that inhibit Mcl-1 protein” (priority 2017, dated 2020).

Like-named read-outs stand apart in the source and are kept apart here.

Experiment [1] concerns the target recombinant human Mcl-1 (residues 171-327) / Bim interaction (Homo sapiens (Human), UniProt Q07820). The experiment is described as follows: biochemical. The experiment is classed as binding. The note with it: read-out: Mcl-1 HTRF IC50. Background: Time-resolved FRET reads energy transfer from a long-lived donor to a nearby acceptor.
The subject of experiment [2] is human multiple myeloma cell line, OPM-2. The experiment is described as follows: Cell viability assay (OPM-2 10 FBS), CellTiter-Glo. The experiment is classed as cell-based. The settings on record: Homo sapiens, OPM-2, 16 h. Put shortly: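 Steps: plate cells at 3000/well in 10% FBS growth medium, add serially diluted compound, incubate 16 h at 37 °C with 5% CO2, add detection reagent and read luminescence after 25 min. A 4-parameter logistic model gives IC50.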

[3] abbreviates: 0.1 nM Mcl-1(171-327), 0.05 nM biotin-Bim (51-76).
Where [4] appears, read: read-out: OPM-2 10% FBS IC50 IP, OPM-2 cells, 10% FBS, 16 h incubation.
[5] abbreviates: TR-FRET, Mcl-1(171-327) / biotin-Bim (51-76).
Setting [6] is: read-out: OPM-2 10% FBS IC50 IP, OPM-2 cells, 10% FBS, 16 h, CellTiter-Glo.

Sequence of recombinant human Mcl-1 (residues 171-327) / Bim interaction (Q07820 171-327): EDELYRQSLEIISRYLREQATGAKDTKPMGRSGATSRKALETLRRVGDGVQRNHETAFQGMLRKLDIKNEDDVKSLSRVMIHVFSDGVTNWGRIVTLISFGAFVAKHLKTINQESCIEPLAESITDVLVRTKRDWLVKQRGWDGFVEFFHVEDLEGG

Take `COCC(C)(C)N1CCN(C[C@]2(OC)/C=C/C[C@H](C)[C@@H](C)S(=O)(=O)NC(=O)c3ccc4c(c3)N(C[C@@H]3CC[C@H]32)C[C@@]2(CCCc3cc(Cl)ccc32)CO4)CC1` [Example 297, (1S,3′R,6′R,7′S,8′E,11′S,12′R)-6-chloro-7′-methoxy-7′-((4-(2-methoxy-1,1-dimethylethyl)-1-piperazinyl)methyl)-11′,12′-dimethyl-3,4-dihydro-2H,15′H-spiro[naphthalene-1,22′-[20]oxa[13]thia[1,14]diazatetracyclo [14.7.2.0~3,6~.0~19,24~]pentacosa[8,16,18,24]tetraen]-15′-one 13′,13′-dioxide]: the values for the IC50 in experiment [1] (setting [3]) and in experiment [2] (setting [4]) were 0.128 nM and 66 nM, respectively.
The matching figures for `CO[C@]1(CN2CC3(C2)CN(C(C)C)C3)/C=C/C[C@H](C)[C@@H](C)S(=O)(=O)NC(=O)c2ccc3c(c2)N(C[C@@H]2CC[C@H]21)C[C@@]1(CCCc2cc(Cl)ccc21)CO3` [Example 320, (1S,3′R,6′R,7′R,8′E,11′S,12′R)-6-chloro-7′-methoxy-11′,12′-dimethyl-7′-((6-(1-methylethyl)-2,6-diazaspiro[3.3]hept-2-yl)methyl)-3,4-dihydro-2H,15′H-spiro[naphthalene-1,22′-[20]oxa[13]thia[1,14]diazatetracyclo [14.7.2.0~3,6~.0~19,24~]pentacosa[8,16,18,24]tetraen]-15′-one 13′,13′-dioxide]: 0.524 nM and 302 nM.
Regarding `C[C@@H]1[C@@H](C)C/C=C/[C@](C)(OCCN2CCOCC2)[C@@H]2CC[C@H]2CN2C[C@@]3(CCCc4cc(Cl)ccc43)COc3ccc(cc32)C(=O)NS1(=O)=O` [Example 100007, (1 S,3′R,6′R,7′S,8′E,11′S, 12′R)-6-chloro-7′,11′,12′-trimethyl-7′-(2-(4-morpholinyl)ethoxy)-3,4-dihydro-2H, 15′H-spiro[naphthalene-1,22′-[20]oxa[13]thia[1,14]diazatetracyclo[14.7.2.0-3,6˜.0˜19,24˜]pentacosa[8,16,18,24]tetraen]-15′-one 13′,13′-dioxide], the IC50 (in general, the concentration that gives 50% inhibition) in experiment [1] (setting [5]) was found to be 0.367 nM; in experiment [2] (setting [6]), 142 nM.
The matching figures for `Cc1onc(C[C@@]2(O)/C=C/C[C@H](C)[C@@H](C)S(=O)(=O)NC(=O)c3ccc4c(c3)N(C[C@@H]3CC[C@H]32)C[C@@]2(CCCc3cc(Cl)ccc32)CO4)c1C` [Example 100573, (1S,3′R,6′R,7′R,8′E,11′S,12′R)-6-chloro-7′-((4,5-dimethyl-1,2-oxazol-3-yl)methyl)-7′-hydroxy-11′,12′-dimethyl-3,4-dihydro-2H,15′H-spiro[naphthalene-1,22′-[20]oxa[13]thia[1,14]diazatetracyclo [14.7.2.0~3,6~.0~19,24~]pentacosa[8,16,18,24]tetraen]-15′-one 13′,13′-dioxide]: 2.07 nM and 7390 nM.
Consider `CCO[C@]1(CN2CCN3CCOC[C@@H]3C2)CCC[C@H](C)[C@@H](CCOC)S(=O)(=O)NC(=O)c2ccc3c(c2)N(C[C@@H]2CC[C@H]21)C[C@@]1(CCCc2cc(Cl)ccc21)CO3` [Example 518, (1S,3′R,6′R,7′R,11′S,12′R)-6-chloro-7′-ethoxy-7′-((9aS)-hexahydropyrazino[2,1-c][1,4]oxazin-8(1H)-ylmethyl)-12′-(2-methoxyethyl)-11′-methyl-3,4-dihydro-2H,15′H-spiro[naphthalene-1,22′-[20]oxa[13]thia[1,14]diazatetracyclo[14.7.2.0˜3,6˜.0˜19,24˜]pentacosa[16,18,24]trien]-15′-one 13′,13′-dioxide], for which the IC50 in experiment [1] (setting [3]) came out at 0.164 nM; in experiment [2] (setting [4]), 224 nM.
Consider `C[C@@H]1[C@@H](C)C/C=C/[C@](O)(c2nc(CO)nn2C)[C@@H]2CC[C@H]2CN2C[C@@]3(CCCc4cc(Cl)ccc43)COc3ccc(cc32)C(=O)NS1(=O)=O` [Example 100201, (1S,3′R,6′R,7′R,8′E,11′S,12′R)-6-chloro-7′-hydroxy-7′-(3-(hydroxymethyl)-1-methyl-1H-1,2,4-triazol-5-yl)-11′,12′-dimethyl-3,4-dihydro-2H,15′H-spiro[naphthalene-1,22′-[20]oxa[13]thia[1,14]diazatetracyclo [14.7.2.0~3,6~.0~19,24~]pentacosa[8,16,18,24]tetraen]-15′-one 13′,13′-dioxide], for which the IC50 in experiment [1] (setting [5]) came to 0.086 nM; in experiment [2] (setting [6]), 307 nM.
Regarding `C[C@@H]1[C@@H](C)C/C=C/[C@](O)(c2cccc(F)n2)[C@@H]2CC[C@H]2CN2C[C@@]3(CCCc4cc(Cl)ccc43)COc3ccc(cc32)C(=O)NS1(=O)=O` [Example 100331, (1S,3′R,6′R,7′R,8′E,11′S,12′R)-6-chloro-7′-(6-fluoro-2-pyridinyl)-7′-hydroxy-11′,12′-dimethyl-3,4-dihydro-2H,15′H-spiro[naphthalene-1,22′-[20]oxa[13]thia[1,14]diazatetracyclo [14.7.2.0~3,6~.0~19,24~]pentacosa[8,16,18,24]tetraen]-15′-one 13′,13′-dioxide], the IC50 in experiment [1] (setting [5]) turned out to be 0.192 nM; in experiment [2] (setting [6]) it was 8260 nM.
As for `CO[C@]1(CN2CCN3CCCC[C@@H]3C2)/C=C/[C@H](C)[C@H](C)CS(=O)(=O)NC(=O)c2ccc3c(c2)N(C[C@@H]2CC[C@H]21)C[C@@]1(CCCc2cc(Cl)ccc21)CO3` [Example 161, (1S,3′R,6′R,7′R,8′E,10′S,11′S)-6-chloro-7′-methoxy-10′,11′-dimethyl-7′-((9aR)-octahydro-2H-pyrido[1,2-a]pyrazin-2-ylmethyl)-3,4-dihydro-2H,15′H-spiro[naphthalene-1,22′-[20]oxa[13]thia[1,14]diazatetracyclo [14.7.2.0~3,6~.0~19,24~]pentacosa[8,16,18,24]tetraen]-15′-one 13′,13′-dioxide], the values for the half-inhibitory concentration (IC50) in experiment [1] (setting [3]) and in experiment [2] (setting [4]) were 0.094 nM and 113 nM, respectively.
`CO[C@@]1(CCCO)/C=C/C[C@H](C)[C@@H](C)S(=O)(=O)NC(=O)c2ccc3c(c2)N(C[C@@H]2CC[C@H]21)C[C@@]1(CCCc2cc(Cl)ccc21)CO3` [Example 100177, (1S,3′R,6′R,7′S,8′E,11′S,12′R)-6-chloro-7′-(3-hydroxypropyl)-7′-methoxy-11′,12′-dimethyl-3,4-dihydro-2H,15′H-spiro[naphthalene-1,22′-[20]oxa[13]thia[1,14]diazatetracyclo [14.7.2.0~3,6~.0~19,24~]pentacosa[8,16,18,24]tetraen]-15′-one 13′,13′-dioxide]: the half-maximal inhibitory concentration (IC50) in experiment [1] (setting [5]) turned out to be 0.258 nM; in experiment [2] (setting [6]), 259 nM.
On to `CCCO[C@]1(C=O)/C=C/C[C@H](C)[C@@H](C)S(=O)(=O)NC(=O)c2ccc3c(c2)N(C[C@@H]2CC[C@H]21)C[C@@]1(CCCc2cc(Cl)ccc21)CO3` [Example 100602, (1S,3′R,6′R,7′R,8′E,11′S,12′R)-6-chloro-11′,12′-dimethyl-15′-oxo-7′-propoxy-3,4-dihydro-2H-spiro[naphthalene-1,22′-[20]oxa[13]thia[1,14]diazatetracyclo [14.7.2.0~3,6~.0~19,24~]pentacosa[8,16,18,24]tetraene]-7′-carbaldehyde 13′,13′-dioxide], for which the concentration for half-maximal inhibition (IC50) in experiment [1] (setting [5]) was determined as 0.8 nM; in experiment [2] (setting [6]), 2330 nM.
As for `C[C@@H]1[C@@H](C)C/C=C/[C@@](O)(CC(=O)N2CC(F)(F)C2)[C@@H]2CC[C@H]2CN2C[C@@]3(CCCc4cc(Cl)ccc43)COc3ccc(cc32)C(=O)NS1(=O)=O` [Example 100297, (1S,3′R,6′R,7′S,8′E,11′S,12′R)-6-chloro-7′-(2-(3,3-difluoro-1-azetidinyl)-2-oxoethyl)-7′-hydroxy-11′,12′-dimethyl-3,4-dihydro-2H,15′H-spiro[naphthalene-1,22′-[20]oxa[13]thia[1,14]diazatetracyclo [14.7.2.0~3,6~.0~19,24~]pentacosa[8,16,18,24]tetraen]-15′-one 13′,13′-dioxide], the IC50 in experiment [1] (setting [5]) worked out at 0.115 nM; in experiment [2] (setting [6]), 168 nM.
On to `CO[C@@]1(CN2CCC3(CCOCC3)CC2)/C=C/C[C@H](C)[C@@H](C)S(=O)(=O)NC(=O)c2ccc3c(c2)N(C[C@@H]2CC[C@H]21)C[C@@]1(CCCc2cc(Cl)ccc21)CO3` [Example 264, (1S,3′R,6′R,7′S,8′E,11′S,12′R)-6-chloro-7′-methoxy-11′,12′-dimethyl-7′-(3-oxa-9-azaspiro[5.5]undec-9-ylmethyl)-3,4-dihydro-2H,15′H-spiro[naphthalene-1,22′-[20]oxa[13]thia[1,14]diazatetracyclo [14.7.2.0~3,6~.0~19,24~]pentacosa[8,16,18,24]tetraen]-15′-one 13′,13′-dioxide], for which the IC50 in experiment [1] (setting [3]) turned out to be 0.396 nM; in experiment [2] (setting [4]), 771 nM.
`CO[C@@]1(CC=C(C)C)/C=C/C[C@H](C)[C@@H](C)S(=O)(=O)NC(=O)c2ccc3c(c2)N(C[C@@H]2CC[C@H]21)C[C@@]1(CCCc2cc(Cl)ccc21)CO3` [Example 100447, (1S,3′R,6′R,7′S,8′E,11′S,12′R)-6-chloro-7′-methoxy-11′,12′-dimethyl-7′-(3-methyl-2-buten-1-yl)-3,4-dihydro-2H,15′H-spiro[naphthalene-1,22′-[20]oxa[13]thia[1,14]diazatetracyclo [14.7.2.0~3,6~.0~19,24~]pentacosa[8,16,18,24]tetraen]-15′-one 13′,13′-dioxide]: the half-maximal inhibitory concentration (IC50) in experiment [1] (setting [5]) turned out to be 0.05 nM; in experiment [2] (setting [6]), 184 nM.
Turning to `C[C@@H]1[C@@H](C)C/C=C/[C@@](O)(CC=O)[C@@H]2CC[C@H]2CN2C[C@@]3(CCCc4cc(Cl)ccc43)COc3ccc(cc32)C(=O)NS1(=O)=O` [Example 100171, ((1S,3′R,6′R,7′S,8′E,11′S,12′R)-6-chloro-7′-hydroxy-11′,12′-dimethyl-13′,13′-dioxido-15′-oxo-3,4-dihydro-2H-spiro[naphthalene-1,22′-[20]oxa[13]thia[1,14]diazatetracyclo [14.7.2.0~3,6~.0~19,24~]pentacosa[8,16,18,24]tetraen]-7′-yl)acetaldehyde], the IC50 came out at 0.578 nM in experiment [1] (setting [5]) and 868 nM in experiment [2] (setting [6]).
